Experimental data reported in patent US20070264679A1, “Method for analyzing the activity of lipoxygenase using a water-soluble substrate” (Chungnam National University Industry Collaboration …, priority 2006, published 2007).
Each block holds one compound with its values, some of them ahead of it.

Legend:
[1] = target: T1, Rabbit reticulocyte 15-lipoxygenase (reticulocyte LOX) (Oryctolagus cuniculus, UniProt P12530); assay: Oxygenation of arachidonoyl lysophospholipids by reticulocyte LOX; type: biochemical; settings: reticulocyte LOX 2 units/ml, 50 mM phosphate buffer pH 7.4
T1 construct: purchased Biomol Inc. (Plymouth Meeting, Pa., USA)
T1 sequence (P12530 1-663): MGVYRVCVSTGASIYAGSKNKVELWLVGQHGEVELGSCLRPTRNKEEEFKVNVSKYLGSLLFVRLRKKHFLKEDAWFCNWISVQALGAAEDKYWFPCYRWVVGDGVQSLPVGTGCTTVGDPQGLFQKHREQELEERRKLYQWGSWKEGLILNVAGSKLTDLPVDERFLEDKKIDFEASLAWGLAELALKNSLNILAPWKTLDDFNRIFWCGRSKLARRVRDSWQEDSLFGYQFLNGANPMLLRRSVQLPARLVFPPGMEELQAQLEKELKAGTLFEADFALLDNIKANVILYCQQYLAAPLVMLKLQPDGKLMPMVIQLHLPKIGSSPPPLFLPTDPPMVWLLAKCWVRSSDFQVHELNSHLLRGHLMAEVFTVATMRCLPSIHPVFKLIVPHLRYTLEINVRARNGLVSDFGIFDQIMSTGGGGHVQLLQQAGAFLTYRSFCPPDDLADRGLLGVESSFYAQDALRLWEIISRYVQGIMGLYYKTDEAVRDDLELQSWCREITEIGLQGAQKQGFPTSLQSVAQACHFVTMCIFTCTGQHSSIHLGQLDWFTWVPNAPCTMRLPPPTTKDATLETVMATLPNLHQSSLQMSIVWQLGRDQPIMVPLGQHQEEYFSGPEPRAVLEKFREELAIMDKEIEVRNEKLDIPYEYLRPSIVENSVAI
Method: (§1) Activities of various LOXs were monitored by measuring the increase in absorbance at 234 nm due to the formation of hydroperoxide (ε234=25,000 M^−1 cm^−1) at 25° C. as described before (Smith et al, J. Biol. Chem. 247 (1972) 1038-1047). One unit is defined as the amount of LOXs that can produce one nanomole of conjugated diene per min. The reaction mixture (500 μl) included reticulocyte LOX (2 units/ml) in 50 mM phosphate buffer (pH 7.4), porcine leukocyte LOX (1 unit/ml) in 100 mM phosphate buffer (pH 7.5) containing 5 mM EDTA and 0.03% Tween 20, or soybean LOX-1 (2.5 units/ml) in 50 mM borax buffer (pH 9.0) at 25° C. The reactions were started by including each substrate (100 μM) into the above reaction mixture.
(§2) Reticulocyte LOX (2 units/ml), leukocyte LOX (1 units/ml) or soybean LOX-1 (2.5 units/ml) was incubated with each arachidonoyl derivative substrate of various concentrations as described above. The values of kinetic parameters were obtained according to Lineweaver Burke plot analyses as described before (Barroso et al, J. Chromatogr. B. Analyt. Technol. Biomed. Life. Sci. 814 (2005) 21-28).
It is noteworthy that the efficacy of arachidonoyl-lysoPC as a substrate for leukocyte LOX was approximately 10-fold greater than that of arachidonic acid. In an additional study, the oxygenation of arachidonoyl-lysoPC or arachidonoyl-lysoPA by reticulocyte LOX was examined. […]

[2] = target: T2, Leukocyte 12-lipoxygenase (leukocyte LOX) (Sus scrofa, UniProt P16469); assay: Kinetics of oxygenation of arachidonic acid or arachidonoyl-lysophospholipids by leukocyte LOX; type: biochemical, porcine; settings: leukocyte LOX 1 unit/ml, 100 mM phosphate buffer pH 7.5, 5 mM EDTA; for Vm: 0.03% Tween 20
T2 construct: purchased Cayman Chemical Co. (Ann Arbor, Mich., USA)
T2 sequence (P16469 1-663): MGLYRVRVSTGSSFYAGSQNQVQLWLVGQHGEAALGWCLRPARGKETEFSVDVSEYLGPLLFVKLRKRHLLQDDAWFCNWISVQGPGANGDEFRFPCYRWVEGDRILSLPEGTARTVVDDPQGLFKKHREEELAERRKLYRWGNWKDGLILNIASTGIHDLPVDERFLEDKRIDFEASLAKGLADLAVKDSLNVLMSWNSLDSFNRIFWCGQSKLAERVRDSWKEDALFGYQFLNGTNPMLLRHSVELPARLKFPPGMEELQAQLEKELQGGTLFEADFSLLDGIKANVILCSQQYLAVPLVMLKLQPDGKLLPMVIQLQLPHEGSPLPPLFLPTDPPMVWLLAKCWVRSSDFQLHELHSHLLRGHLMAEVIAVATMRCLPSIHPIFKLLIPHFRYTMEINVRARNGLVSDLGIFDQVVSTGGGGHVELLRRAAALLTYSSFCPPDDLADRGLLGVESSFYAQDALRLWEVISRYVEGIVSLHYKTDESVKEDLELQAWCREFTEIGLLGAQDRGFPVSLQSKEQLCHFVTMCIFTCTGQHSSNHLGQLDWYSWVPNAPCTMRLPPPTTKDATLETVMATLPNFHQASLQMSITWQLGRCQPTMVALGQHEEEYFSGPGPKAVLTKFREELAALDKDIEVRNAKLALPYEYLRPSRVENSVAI
Method: as §1, §2

soybean LOX-1 [3] = target: T3, soybean LOX-1 (Glycine max, UniProt P08170); assay: Kinetics of oxygenation of arachidonic acid or arachidonoyl-lysophospholipids by soybean LOX-1; type: biochemical; settings: soybean LOX-1 2.5 units/ml; for Vm: 50 mM borax buffer pH 9.0, unit = one nanomole conjugated diene per min
T3 construct: purchased Sigma-Aldrich Corp (St. Louis, Mo., USA) lipoxidase Type I-B
T3 sequence (P08170 1-839): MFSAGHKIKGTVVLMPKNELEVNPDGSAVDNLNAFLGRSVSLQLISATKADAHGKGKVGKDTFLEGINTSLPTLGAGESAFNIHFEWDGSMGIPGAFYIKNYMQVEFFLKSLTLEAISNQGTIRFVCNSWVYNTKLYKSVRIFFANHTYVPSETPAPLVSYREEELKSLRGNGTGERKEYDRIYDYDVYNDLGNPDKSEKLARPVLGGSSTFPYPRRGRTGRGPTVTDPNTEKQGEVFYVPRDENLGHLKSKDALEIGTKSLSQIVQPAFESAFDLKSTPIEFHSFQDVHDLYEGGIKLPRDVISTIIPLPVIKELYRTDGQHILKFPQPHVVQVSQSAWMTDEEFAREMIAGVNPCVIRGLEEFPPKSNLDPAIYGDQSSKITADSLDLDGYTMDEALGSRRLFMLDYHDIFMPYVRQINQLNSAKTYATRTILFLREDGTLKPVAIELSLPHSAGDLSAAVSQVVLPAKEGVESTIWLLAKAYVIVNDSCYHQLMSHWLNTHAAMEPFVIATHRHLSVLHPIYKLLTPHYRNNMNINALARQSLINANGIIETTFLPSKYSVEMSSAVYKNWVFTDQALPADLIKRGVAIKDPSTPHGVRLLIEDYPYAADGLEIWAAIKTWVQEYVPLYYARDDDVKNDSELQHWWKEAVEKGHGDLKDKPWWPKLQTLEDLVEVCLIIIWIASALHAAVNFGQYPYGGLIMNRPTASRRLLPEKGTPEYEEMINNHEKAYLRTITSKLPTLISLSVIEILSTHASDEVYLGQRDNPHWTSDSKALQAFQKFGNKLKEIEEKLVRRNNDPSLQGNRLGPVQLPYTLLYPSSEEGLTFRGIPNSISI
Method: as §1, §2

Reticulocyte LOX = target: T4, Reticulocyte LOX (Oryctolagus cuniculus, UniProt P12530); assay: Kinetics of oxygenation of linoleoylated substrates by reticulocyte LOX; type: biochemical, Rabbit; settings: reticulocyte LOX 8.2 units/ml, 50 mM phosphate buffer pH 7.4, 25° C.
T4 construct: purchased Biomol Inc. (Plymouth Meeting, Pa., USA)
T4 sequence (P12530 1-663): T1 sequence (P12530 1-663)
Text: Data were expressed as means ±S.D. of results from at least three independent experiments.

lipoxygenase = target: T5, lipoxygenase (Glycine max, UniProt P08170); settings: Perez-Gilabert et al. 1998; cited from earlier work
T5 sequence (P08170 1-839): T3 sequence (P08170 1-839)

soybean LOX-1 [4] = target: T3, soybean LOX-1; assay: Kinetics of oxygenation of docosahexaenoic acid derivatives by soybean LOX-1; type: biochemical; settings: soybean LOX-1 2.5 units/ml, 50 mM borax buffer pH 9.0, 25° C.
Method: Soybean LOX-1 (2.5 units/ml) was incubated with docosahexaenoyl-lysoPC, didocosahexaenoyl-lysoPC or docosahexaenoic acid of various concentrations in 500 μl of 50 mM borax buffer (pH 9.0) at 25° C. Values were expressed as means ±S.D. of results from at least three independent experiments.

Porcine leukocyte LOX = target: T6, Porcine leukocyte LOX (Sus scrofa, UniProt P16469); assay: Kinetics of oxygenation of docosahexaenoyl-lysoPC or docosahexaenoic acid by leukocyte LOX; type: biochemical; settings: porcine leukocyte LOX 2 units/ml, 100 mM phosphate buffer pH 7.4, 5 mM EDTA
T6 construct: purchased Cayman Chemical Co. (Ann Arbor, Mich., USA)
T6 sequence (P16469 1-663): T2 sequence (P16469 1-663)
Method: Porcine leukocyte LOX (2 units/ml) was incubated with each substrate docosahexaenoyl-lysoPC or docosahexaenoic acid of various concentrations in 500 μl of 100 mM phosphate buffer (pH 7.4) containing 5 mM EDTA and 0.03% Tween 20 at 25° C.

Vm [2]: 33.5 ± 2.9 units/mg | Km ([2]; 0.03% Tween 20, 25° C.): 8.6 µM | Vm ([2]; listed as arachidonoyl-lysoPA): 33.5 units/mg | Km (soybean LOX-1 [3]; 50 mM borax buffer pH 9.0, 25° C.): 15.4 µM | Vm (soybean LOX-1 [3]): 147.8 ± 2.3 units/μg | Vm (soybean LOX-1 [3]; listed as arachidonoyl-lysoPA): 147.8 units/μg
Compound: CCCCC/C=C\C/C=C\C/C=C\C/C=C\CCCC(=O)OCC(O)COP(=O)(O)O (centres unmarked) [Arachidonoyl-lysoPA, 1-arachidonoyl lysophosphatidic acid]
Vm/Km value in reticulocyte LOX-catalyzed oxygenation compared with arachidonic acid [1]: somewhat greater than that of arachidonic acid

Vm (Reticulocyte LOX): 646 ± 20 units/mg | Km (Reticulocyte LOX; substrate 3-100 μM): 71.7 ± 6.9 µM
Compound: CCCCC/C=C\C/C=C\CCCCCCCC(=O)OC[C@H](COP(=O)([O-])OCC[N+](C)(C)C)OC(=O)CCCCCCC/C=C\C/C=C\CCCCC [Dilinoleoyl-PC, Dilinoleoyl phosphatidylcholine]
lipoxygenation rate relative to linoleic acid (times slower) (lipoxygenase): about 4 times

Compound: CC/C=C\C/C=C\C/C=C\C/C=C\C/C=C\C/C=C\CCC(=O)OCC(O)COP(=O)([O-])OCC[N+](C)(C)C (centres unmarked) [Docosahexaenoyl-lysoPC, 1-docosahexenoyl lysophosphatidylcholine]
Km (soybean LOX-1 [4]): 2.2 ± 0.6 µM | Vm (soybean LOX-1 [4]): 104.2 ± 5.2 units/μg | Vm (Porcine leukocyte LOX; 0.03% Tween 20): 77.2 ± 2.8 units/mg | Km (Porcine leukocyte LOX; 0.03% Tween 20, 25° C.): 3.4 ± 1.8 µM
